Assay results from patent US20050209278A1, “Piperidinyl- and piperazinyl-sulfonylmethyl hydroxamic acids and their use as protease inhibitors” (priority 2002, published 2005).
pKi: −log10 of the molar value. Where two headings read alike, the source gives them in different places.

Assays:
[1] = molecular target: T1, MMP-1 (Homo sapiens, UniProt P03956); assay: MMP-1 inhibition (in vitro Ki); format: biochemical
T1 construct: made in house; host or cells: MMP-1-transfected HT-1080 cells (spent media)
T1 sequence (P03956 100-469): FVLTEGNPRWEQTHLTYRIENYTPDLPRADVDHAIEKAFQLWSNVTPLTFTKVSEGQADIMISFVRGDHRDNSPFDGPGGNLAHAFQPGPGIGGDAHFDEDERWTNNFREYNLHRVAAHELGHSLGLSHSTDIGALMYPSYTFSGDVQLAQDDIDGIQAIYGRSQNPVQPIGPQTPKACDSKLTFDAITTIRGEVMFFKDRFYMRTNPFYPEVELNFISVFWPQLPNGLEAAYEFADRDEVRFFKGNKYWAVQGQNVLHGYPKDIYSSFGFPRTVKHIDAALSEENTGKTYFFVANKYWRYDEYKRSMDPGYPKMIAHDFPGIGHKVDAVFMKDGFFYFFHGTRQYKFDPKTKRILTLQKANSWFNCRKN

[2] = molecular target: T2, MMP-2 (Homo sapiens, UniProt P08253); assay: MMP-2 inhibition (in vitro Ki); format: biochemical
T2 construct: made in house; host or cells: MMP-2-transfected p2AHT2 cells
T2 sequence (P08253 110-660): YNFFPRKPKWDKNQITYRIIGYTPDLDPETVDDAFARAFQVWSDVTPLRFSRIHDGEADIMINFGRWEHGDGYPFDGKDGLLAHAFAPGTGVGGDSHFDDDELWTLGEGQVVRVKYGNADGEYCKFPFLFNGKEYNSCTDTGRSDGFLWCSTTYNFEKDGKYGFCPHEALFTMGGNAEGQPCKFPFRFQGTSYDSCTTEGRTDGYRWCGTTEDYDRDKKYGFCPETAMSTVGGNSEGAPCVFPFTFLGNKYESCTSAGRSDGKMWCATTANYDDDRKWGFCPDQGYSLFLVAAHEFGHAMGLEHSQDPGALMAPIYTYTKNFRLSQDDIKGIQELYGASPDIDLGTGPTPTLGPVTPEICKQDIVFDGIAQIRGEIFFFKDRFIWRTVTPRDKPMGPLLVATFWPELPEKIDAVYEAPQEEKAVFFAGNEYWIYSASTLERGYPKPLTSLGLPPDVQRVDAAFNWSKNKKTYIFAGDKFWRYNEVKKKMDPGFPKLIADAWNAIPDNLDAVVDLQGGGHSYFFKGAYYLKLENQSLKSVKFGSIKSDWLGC

[3] = molecular target: T3, MMP-9 (Homo sapiens, UniProt P14780); assay: MMP-9 inhibition (in vitro Ki); format: biochemical
T3 construct: made in house; host or cells: MMP-9-transfected HT1080 cells (spent media)

[4] = molecular target: T4, MMP-13 (Homo sapiens, UniProt P45452); assay: MMP-13 inhibition (in vitro Ki); format: biochemical
T4 construct: made in house; host or cells: baculovirus / insect cells

[5] = molecular target: T5, MMP-14 (Homo sapiens, UniProt P50281); assay: MMP-14 inhibition (in vitro Ki); format: biochemical
T5 construct: The catalytic domain enzyme was expressed in E. coli inclusion bodies, solubilized in urea; made in house

[6] = test system: solid tumor cancers (colorectal, pancreatic, ovarian, and prostate); conditions: cited from earlier work
[7] = Table 9, read-out: MMP-1 Ki (IC-50)
[8] = Table 9, read-out: MMP-2 Ki (IC-50)
[9] = Table 9, read-out: MMP-9 Ki (IC-50)
[10] = Table 9, read-out: MMP-13 Ki (IC-50)
[11] = Table 9, read-out: MMP-14 Ki (IC-50)

T3 sequence (P14780 107-707 limits assumed): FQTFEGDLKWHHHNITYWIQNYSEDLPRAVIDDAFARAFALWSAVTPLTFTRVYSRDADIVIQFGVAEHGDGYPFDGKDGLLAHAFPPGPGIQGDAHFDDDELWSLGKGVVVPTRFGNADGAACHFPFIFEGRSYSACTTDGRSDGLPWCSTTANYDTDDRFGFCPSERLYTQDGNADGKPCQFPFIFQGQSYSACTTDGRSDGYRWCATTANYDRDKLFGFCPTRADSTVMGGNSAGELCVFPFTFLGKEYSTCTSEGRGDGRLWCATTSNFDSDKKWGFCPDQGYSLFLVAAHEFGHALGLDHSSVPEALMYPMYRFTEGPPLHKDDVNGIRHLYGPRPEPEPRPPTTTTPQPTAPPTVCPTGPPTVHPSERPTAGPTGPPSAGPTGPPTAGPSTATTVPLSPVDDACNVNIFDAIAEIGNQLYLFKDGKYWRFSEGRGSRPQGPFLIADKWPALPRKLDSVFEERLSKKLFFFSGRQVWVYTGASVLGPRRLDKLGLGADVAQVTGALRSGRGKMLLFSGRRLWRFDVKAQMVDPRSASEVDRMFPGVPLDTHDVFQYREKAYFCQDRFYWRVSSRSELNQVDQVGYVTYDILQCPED

SMILES	pKi [1, 7]	pKi [2, 8]	pKi [3, 9]	pKi [4, 10]	pKi [5, 11]	pKi ([1]; Table 10, read-out: MMP-1 Ki)	pKi ([2]; Table 10, read-out: MMP-2 Ki)	pKi ([3]; Table 10, read-out: MMP-9 Ki)	pKi ([4]; Table 10, read-out: MMP-13 Ki)	pKi ([5]; Table 10, read-out: MMP-14 Ki)	most common drug-related toxicity ([6]; clinical trials in patients)	effect on cancer-specific antigens used as surrogate markers for biological activity ([6]; patients with advanced, rapidly progressive, treatment-refractory solid tumor cancers)
Cc1cnn(-c2ccc(C3CCN(S(=O)(=O)C4(C(=O)NO)CCOCC4)CC3)nc2)c1 [Example A193]	5.33	8.33	8.08	8.68	5.55							
O=C(NO)C1(S(=O)(=O)N2CCC(c3ccc(-n4cccn4)cn3)CC2)CCOCC1 [Example A194]	< 5.00	8.06	7.90	8.05	5.77							
O=C(NO)C1(S(=O)(=O)N2CCN(c3ccc(-c4cccnc4)c(F)c3)CC2)CCOCC1 [Example A195]	5.80	9.74	8.17	9.47	5.61							
CCCCc1cnc(C2CCN(S(=O)(=O)C3(C(=O)NO)CCOCC3)CC2)nc1 [Example A196]	< 5.00	7.15	8.69	7.66	< 5.00							
O=C(NO)C1(S(=O)(=O)N2CCN(c3ccc(-c4nnn(CC(F)(F)F)n4)cc3)CC2)CCOCC1 [Example A199]	6.54	10.22	9.08	10.40	6.54							
O=C(NO)C1(S(=O)(=O)N2CCC(c3ccc(-c4nccs4)cn3)CC2)CCOCC1 [Example A200]	< 5.00	8.05	8.17	8.17	< 5.00							
Cn1cc(-c2ccc(C3CCN(S(=O)(=O)C4(C(=O)NO)CCOCC4)CC3)nc2)cn1 [Example A201]	5.23	8.37	7.77	8.67	5.47							
Cn1nnc(-c2ccc(C3CCN(S(=O)(=O)C4(C(=O)NO)CCOCC4)CC3)cc2)n1 [Example A202]	5.64	9.34	9.04	8.68	5.91							
O=C(NO)C1(S(=O)(=O)N2CCC(c3ccc(CCC(F)(F)C(F)(F)F)cn3)CC2)CCN(C2CC2)CC1 [Example A204]	< 5.00	9.19	9.54	9.64	5.29							
O=C(NO)C1(S(=O)(=O)N2CCN(c3ccc(-c4ccsc4)c(F)c3)CC2)CCOCC1 [Example A205]	5.44	9.48	8.94	9.03	6.53							
O=C(NO)C1(S(=O)(=O)N2CCC(c3cnc(OCC(F)(F)C(F)F)cn3)CC2)CCOCC1 [Example A206]	5.35	9.15	9.08	9.05	5.24							
O=C(/C=C/C=C/C1CCN(S(=O)(=O)C2(C(=O)NO)CCOCC2)CC1)N1CCOCC1 [Example A208]	5.13	6.75	5.80	8.71	< 5.00							
O=C(CCCCC1CCN(S(=O)(=O)C2(C(=O)NO)CCOCC2)CC1)N1CCc2ccccc21 [Example B1, (4-({4-[5-(2,3-dihydro-1H-indol-1-yl)-5-oxopentyl]piperidin-1-yl}sulfonyl)-N-hydroxytetrahydro-2H-pyran-4-carboxamide)]						6.32	7.51	6.42	9.64	< 5.00		
CCC(CC)(C(=O)NO)S(=O)(=O)N1CCC(Oc2ccc(SC(F)(F)F)cc2)CC1 [Example B2, 2-ethyl-N-hydroxy-2-[(4-{4-[(trifluoromethyl)thio]phenoxy}piperidin-1-yl)sulfonyl]butanamide]						5.54	8.92	9.32	8.97	5.81		
COCCC(C(=O)NO)S(=O)(=O)N1CCC(Oc2ccc(SC(F)(F)F)cc2)CC1 (stereo not shown) [Example B3, N-hydroxy-4-methoxy-2-[(4-{4-[(trifluoromethyl)thio]phenoxy}piperidin-1-yl)sulfonyl]butanamide]						< 5.00	9.10	9.48	9.01	5.71		
COCCC(CCOC)(C(=O)NO)S(=O)(=O)N1CCC(Oc2ccc(SC(F)(F)F)cc2)CC1 [Example B4, N-hydroxy-4-methoxy-2-(2-methoxyethyl)-2-[(4-{4-[(trifluoromethyl)thio]phenoxy}piperidin-1-yl)sulfonyl]butanamide]						5.69	9.18	9.74	9.35	5.79		
CNC(=O)[C@@H](NC(=O)[C@H](CC(C)C)[C@H](O)C(=O)NO)C(C)(C)C [Marimastat]											musculoskeletal pain and stiffness	dose-related reduction in the rise of cancer-specific antigens
